Among the test systems are 786-0 renal; COLO 205 colon; EKVX NSCLC; HCT-15 colon; HS 578T breast; IGROV1 ovarian; K-562 leukemia; SK-MEL-28 melanoma; SK-MEL-5 melanoma; SK-OV-3 ovarian; HOP-92 NSCLC.
Common to all, as to assay: NCI anticancer screen, dose series, 48 h

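Following 48 hours of exposure in 96-well plates, responses at five concentrations were used to interpolate endpoints linearly. At the TGI there is no net growth.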

Consider `ClC1(Cl)C2CCOC21n1cnc2ccccc21` (stereo unspecified), for which the TGI with 786-0 renal, in the assay on COLO 205 colon, with EKVX NSCLC, with HCT-15 colon, in the assay with HS 578T breast and with IGROV1 ovarian was above 100 µM each time. For the same compound, the TGI with K-562 leukemia, in the assay on SK-MEL-28 melanoma, in the assay on SK-MEL-5 melanoma and with SK-OV-3 ovarian was above 100 µM in each case.

`O=C(O)c1cc2sc(C(=O)O)cc2s1`: the TGI in the assay on COLO 205 colon, in the assay with HCT-15 colon, in the assay with HOP-92 NSCLC, in the assay with IGROV1 ovarian, in the assay with K-562 leukemia and with SK-MEL-5 melanoma was above 100 µM throughout. This compound gave a TGI in the assay on SK-OV-3 ovarian above 100 µM.

As to `CNC(=S)c1nnsc1N`, the TGI with 786-0 renal, with COLO 205 colon, in the assay with EKVX NSCLC, in the assay on HCT-15 colon, in the assay on HS 578T breast and in the assay on IGROV1 ovarian was above 100 µM throughout. Also, the TGI in the assay with K-562 leukemia, with SK-MEL-28 melanoma, in the assay on SK-MEL-5 melanoma and in the assay with SK-OV-3 ovarian was above 100 µM in each case.

On to `COC(=O)Cc1c(-c2c(CC(=O)OC)c3ccccc3n2C2OC(COC3OC(COC(C)=O)C(OC(C)=O)C(OC(C)=O)C3OC(C)=O)C(O)C(O)C2O)[nH]c2ccccc12` (stereo unspecified), for which the TGI in the assay with 786-0 renal, with COLO 205 colon, with EKVX NSCLC, with HCT-15 colon, in the assay on HOP-92 NSCLC and in the assay with IGROV1 ovarian was above 100 µM each time. For the same compound, the TGI in the assay on K-562 leukemia, in the assay with SK-MEL-28 melanoma, with SK-MEL-5 melanoma and in the assay on SK-OV-3 ovarian was above 100 µM throughout.

Take `C/C(=N\Nc1nc2ccccc2[nH]1)c1ccc2ccccc2n1`: the TGI in the assay with 786-0 renal was found to be 10.7 µM; in the assay on COLO 205 colon, 16.2 µM; in the assay on EKVX NSCLC, 5.97 µM; in the assay on HCT-15 colon, 35.2 µM; in the assay with HS 578T breast it was 35 µM; with IGROV1 ovarian, 8.1 µM. The TGI in the assay on K-562 leukemia stood at 6.72 µM; in the assay on SK-MEL-28 melanoma, 23 µM; in the assay on SK-MEL-5 melanoma, 4.5 µM; in the assay on SK-OV-3 ovarian, 38.4 µM.

`COC(=O)c1cc(OCc2cc(OCc3ccc(Br)cc3)cc(OCc3ccc(Br)cc3)c2)cc(OCc2cc(OCc3ccc(Br)cc3)cc(OCc3ccc(Br)cc3)c2)c1`: the TGI with 786-0 renal, in the assay on COLO 205 colon, with EKVX NSCLC, in the assay on HCT-15 colon, in the assay with HOP-92 NSCLC and with K-562 leukemia was above 100 µM throughout. In addition, the TGI with SK-MEL-28 melanoma, in the assay on SK-MEL-5 melanoma and with SK-OV-3 ovarian was above 100 µM throughout.

In the case of `O=C(CCCN1CCC(Nc2ccc(F)cc2)(c2nnnn2C2CCCCC2)CC1)c1ccc(F)cc1`, the TGI with 786-0 renal was found to be 37.1 µM; in the assay with COLO 205 colon it was 37.1 µM; in the assay on EKVX NSCLC, 35.4 µM; in the assay with HCT-15 colon, 42.4 µM; in the assay on HS 578T breast, 46.3 µM; in the assay with IGROV1 ovarian it was 12.3 µM. The TGI is above 100 µM in the assay on K-562 leukemia, 30.5 µM in the assay with SK-MEL-28 melanoma, 42 µM in the assay on SK-MEL-5 melanoma and 11.5 µM with SK-OV-3 ovarian.

With `COC1=C2C[C@](OC)(C#CC=CC#CC2O)CC1(C)C` (stereo partly specified), the TGI in the assay with 786-0 renal was above 100 µM; in the assay with COLO 205 colon, above 100 µM; with EKVX NSCLC, above 100 µM; in the assay with HCT-15 colon it was above 100 µM; in the assay with HS 578T breast it was above 100 µM; in the assay with IGROV1 ovarian, 63.2 µM. Besides, the TGI with K-562 leukemia, with SK-MEL-28 melanoma and with SK-MEL-5 melanoma was above 100 µM throughout.

Take `CCCCCCCCC[C@@H]1C[C@H](O)[C@H](Cc2ccccc2)N1C(=O)OC(C)(C)C`: the TGI in the assay with COLO 205 colon was 31.1 µM; in the assay with EKVX NSCLC it was 33.5 µM; in the assay on HCT-15 colon it was 33.9 µM; with HOP-92 NSCLC, 28.9 µM; with IGROV1 ovarian it was 33.3 µM; in the assay on K-562 leukemia, above 100 µM. Besides, the TGI in the assay on SK-MEL-28 melanoma was determined as 34.9 µM; in the assay with SK-MEL-5 melanoma, 33.1 µM; in the assay on SK-OV-3 ovarian, 39 µM.

Consider `NC(=O)NC(=O)c1cccc(C(=O)NC(N)=O)n1`, for which the TGI in the assay on 786-0 renal, with EKVX NSCLC, in the assay with HCT-15 colon, in the assay on HOP-92 NSCLC, in the assay with K-562 leukemia and with SK-MEL-28 melanoma was above 100 µM each time. In addition, the TGI in the assay on SK-MEL-5 melanoma and in the assay on SK-OV-3 ovarian was above 100 µM throughout.

Regarding `COC(=O)C1=C(C(=O)OC)C2CCC1CC2=O` (stereo unspecified), the TGI in the assay on 786-0 renal, in the assay on COLO 205 colon, in the assay on EKVX NSCLC, with HCT-15 colon, in the assay on IGROV1 ovarian and with K-562 leukemia was above 100 µM in each case. The TGI in the assay with SK-MEL-28 melanoma, in the assay on SK-MEL-5 melanoma and with SK-OV-3 ovarian was above 100 µM each time.

Consider `CSc1nc(NC2OC(CO)C(O)C(O)C2O)c(N)c(=O)[nH]1` (stereo unspecified), for which the TGI in the assay with COLO 205 colon, in the assay with EKVX NSCLC, with HCT-15 colon, in the assay with HOP-92 NSCLC, in the assay on IGROV1 ovarian and with K-562 leukemia was above 100 µM throughout. Further, the TGI with SK-MEL-28 melanoma, with SK-MEL-5 melanoma and with SK-OV-3 ovarian was above 100 µM in each case.

Take `O=[N+]([O-])c1cnccc1-n1nnc2ccccc21`: the TGI in the assay on COLO 205 colon was 72.8 µM; in the assay on EKVX NSCLC, 90.6 µM; in the assay on HCT-15 colon, 66.1 µM; in the assay on HOP-92 NSCLC, above 71.1 µM; in the assay on IGROV1 ovarian, 47.6 µM; in the assay on K-562 leukemia it was above 100 µM. The TGI in the assay with SK-MEL-28 melanoma was determined as 48.4 µM; in the assay on SK-MEL-5 melanoma it was 33.3 µM; in the assay with SK-OV-3 ovarian it was 56.6 µM.

Consider `O=c1n(CC2CO2)c2ccccc2n1CC1CS1` (stereo unspecified), for which the TGI with COLO 205 colon, in the assay on EKVX NSCLC, with HCT-15 colon, in the assay on HOP-92 NSCLC, in the assay on IGROV1 ovarian and with K-562 leukemia was above 100 µM throughout. The TGI in the assay on SK-MEL-28 melanoma was above 100 µM.

For the compound `COc1ccc(-c2nc3ccccc3c(=O)[nH]2)cc1OC`, the TGI is above 100 µM with 786-0 renal; above 100 µM with COLO 205 colon; 53.2 µM in the assay with EKVX NSCLC; above 100 µM with HCT-15 colon; 83.1 µM in the assay with HS 578T breast; 81.5 µM in the assay with IGROV1 ovarian. In addition, the TGI with K-562 leukemia, in the assay with SK-MEL-5 melanoma and with SK-OV-3 ovarian was above 100 µM in each case.

For `COc1ccc(Nc2cnc3cc(N)ccc3n2)cc1OC`, the TGI was above 100 µM in the assay on COLO 205 colon; above 100 µM in the assay on EKVX NSCLC; above 100 µM in the assay with HCT-15 colon; 42.5 µM in the assay with HOP-92 NSCLC; above 100 µM with IGROV1 ovarian; above 100 µM in the assay on K-562 leukemia. The TGI in the assay on SK-MEL-28 melanoma, in the assay on SK-MEL-5 melanoma and with SK-OV-3 ovarian was above 100 µM in each case.

`CCN(CC)C(=O)N1CN(c2ccccc2)C2(CCN(CCCC3(c4ccc(F)cc4)OCCO3)CC2)C1=O`: the TGI is 33.6 µM with 786-0 renal; 15.2 µM with COLO 205 colon; 90.2 µM in the assay on EKVX NSCLC; 32.3 µM with HCT-15 colon; 37.4 µM in the assay on HS 578T breast; 26.7 µM in the assay on SK-MEL-28 melanoma. Moreover, the TGI with SK-MEL-5 melanoma stood at 26.4 µM; in the assay on SK-OV-3 ovarian it was 61.5 µM.

With `O=C(O)Cc1ccc(-n2nnc3c(=O)[nH][nH]c(=O)c32)cc1`, the TGI with 786-0 renal, in the assay with COLO 205 colon, in the assay with EKVX NSCLC, with HCT-15 colon, in the assay on HOP-92 NSCLC and with K-562 leukemia was above 100 µM each time. Moreover, the TGI in the assay on SK-MEL-28 melanoma and with SK-MEL-5 melanoma was above 100 µM in each case.

With `Cc1cc(NS(=O)(=O)c2ccc(N=Nc3c(Nc4ccccc4)nn(-c4ccc(S(=O)(=O)Nc5ccncn5)cc4)c3C)cc2)no1`, the TGI with 786-0 renal, with COLO 205 colon, in the assay on EKVX NSCLC, in the assay on HCT-15 colon, in the assay on HOP-92 NSCLC and with IGROV1 ovarian was above 100 µM in each case. The TGI in the assay with K-562 leukemia, in the assay on SK-MEL-28 melanoma, in the assay with SK-MEL-5 melanoma and with SK-OV-3 ovarian was above 100 µM throughout.

For `COc1ccc(OC/C(N=Cc2cccnc2)=N/NC(=O)c2ccncc2)cc1`, the TGI in the assay on 786-0 renal, in the assay on COLO 205 colon, in the assay with EKVX NSCLC, with HCT-15 colon, in the assay on HS 578T breast and in the assay with IGROV1 ovarian was above 100 µM each time. Further, the TGI in the assay with K-562 leukemia, with SK-MEL-28 melanoma and in the assay on SK-OV-3 ovarian was above 100 µM each time.

On to `O=c1ccc2c(Cl)sc(Cl)c2[nH]1`, for which the TGI in the assay with 786-0 renal, in the assay with EKVX NSCLC, with HCT-15 colon, in the assay with HS 578T breast, in the assay on IGROV1 ovarian and with K-562 leukemia was above 100 µM each time. Besides, the TGI with SK-MEL-28 melanoma and in the assay with SK-OV-3 ovarian was above 100 µM throughout.

For the compound `CCOC(=O)C(/C=N/C(N)=S)=C(/O)c1ccccc1`, the TGI in the assay on 786-0 renal, in the assay on COLO 205 colon, with EKVX NSCLC, in the assay on HCT-15 colon, with HOP-92 NSCLC and in the assay on IGROV1 ovarian was above 100 µM each time. The TGI in the assay with SK-MEL-28 melanoma, with SK-MEL-5 melanoma and in the assay on SK-OV-3 ovarian was above 100 µM each time.
